One may read the LD50 as the dose at which mortality reaches 50%.

“Also recorded” adds a separate entry of the source.

Data on 1 molecule can be found in PMC5051147, “Ester Hydrolysis Differentially Reduces Aconitine-Induced Anti-hypersensitivity and Acute Neurotoxicity: Involvement of Spinal Microglial Dynorphin Expression and Implications for Aconitum Processing” (Frontiers in Pharmacology, 2016).

The subject of data set [1] is spinal nerve–ligated neuropathic rats. Description: Acute spinal neurotoxicity (flaccid paralysis and death) after intrathecal injection. Type of data set: in vivo, rat. As to the method: (§1) An 18-cm polyethylene catheter (PE-10: 0.28-mm inner diameter and 0.61-mm outer diameter, Clay Adams, Parsippany, NJ, USA) with a volume of 13 μL was inserted into the lumbar level of the spinal cord as described elsewhere under inhalational isoflurane anesthesia (4% for induction and 1% for maintenance) run by an anesthesia meter (Ugo Basile Gas Anesthesia System, Comerio, Italy). Two days after recovery from anesthesia, the placement of the catheter in the spinal cord was verified by administration of 4% lidocaine (10 μL, followed by 15 μL of saline for flushing). Rats that had no motor impairment after placement of the intrathecal catheter were considered for the study, and rats that developed immediate bilateral paralysis of the hindlimbs after intrathecal administration of lidocaine were selected for the study. For intrathecal administration of the control and test articles, 10 μL of each drug was injected with a 50-μL microinjector (Shanghai Anting Micro-Injector Factory, Shanghai, China) and was flushed with 15 μL of normal saline solution.
Survival and abnormal motor-blockade behaviors, including asthma, abdominal breathing, locomotion difficulty, and paralysis, were continuously monitored for 24 h after the treatment, with special attention given during the first 4 h. Paralysis was defined as an inability to negotiate a 60-degree inclined plane ([Durant and Yaksh, 1986]). Death was defined as respiratory arrest over a period of 5 min. The paralysis and mortality rates and their latencies were quantitatively recorded and tabulated.
(§2) The percentage of maximal possible effect (% MPE) was calculated using the following formula: (postdrug threshold in ipsilateral hindlimb – baseline threshold in ipsilateral hindlimb)/(baseline threshold in contralateral hindlimb – baseline threshold in ipsilateral hindlimb) × 100 ([Bowersox et al., 1996]). A % MPE value near 100 indicates normal mechanical thresholds (i.e., near contralateral thresholds), and a value near 0 indicates allodynia. For the dose-response curve analysis, the parameters (i.e., minimum effect; Emax, median effective concentration or dose, or median toxic or lethal dose [EC50, ED50, TD50, or LD50], and Hill coefficient [n]) were calculated from the individual dose-response curves using the Prism program (version 5.01, GraphPad Software, San Diego, CA, USA). To determine the parameters of the dose-response curves, the values of response (Y) were fitted by non-linear least-squares curves to the relation Y = a + bx, where x = [D]^n/(ED50^n + [D]^n), [C]^n/(EC50^n + [C]^n), [D]^n/(TD50^n + [D]^n) or [D]^n/(LD50^n + [D]^n), to give each value of ED50, EC50, TD50, or LD50 and b (Emax) yielding a minimum residual sum of squares of deviations from the theoretical curve ([Wang and Pang, 1993]).

The test system of data set [2] is pain hypersensitivity in spinal nerve-ligated neuropathic rats. The data set can be described thus: Anti-hypersensitivity, normalized (anti-allodynia and anti-hyperalgesia ED50 averaged). Type of data set: in vivo, rat. The note with it: intrathecal; average of allodynia and hyperalgesia ED50. As to the method: as §2
Table 1 summarizes the ED50 values in mole base for aconitine, benzolyaconine, and aconine to block pain hypersensitivity. Because anti-allodynia and anti-hyperalgesia were closely correlated, their ED50 values were averaged to obtain a normalized ED50 for anti-hypersensitivity. The ED50 ratios for aconitine and benzolyaconine to block mechanical allodynia and heat hyperalgesia were 1:92 and 1:110, with a normalized ED50 ratio of 1:102.

Data set [3] concerns mice. The settings on record: intravenous injection in mice; ref Mizugaki and Ito, 2005; cited from earlier work.
The subject of data set [4] is heat hyperalgesia in spinal L5/L6 nerve–ligated neuropathic rats. The data set can be described thus: Heat hyperalgesia (radiant heat paw withdrawal latency) after intrathecal injection in spinal nerve-ligated neuropathic rats. Type of data set: in vivo, rat. How it is done:
as §1
(§3) To induce hypersensitivity to neuropathic pain, the rats were subjected to spinal nerve ligation as previously described [Kim and Chung (1992)] and [Zhang et al. (2013)]. Unilateral ligation of the L5 and L6 spinal nerves was performed under inhalational isoflurane anesthesia (4% for induction and 1% for maintenance) run by an anesthesia meter (Ugo Basile Gas Anesthesia System). The left L5 and L6 spinal nerves were isolated and tightly ligated with 6-0 silk thread. After ligation, the wound was sutured and the rats were returned to their home cages for recovery. After spinal nerve ligation, only those rats with marked unilateral allodynia to mechanical stimulation (i.e., a hindpaw withdrawal threshold of less than 8 g on the operated side) and with no major impairment were included in the study. Drug testing started 2–4 weeks after spinal nerve ligation.
To assess heat hyperalgesia, the rats were put in a plexiglass box on an elevated glass surface. After an adaptation period of at least 30 min, radiant heat was applied to the plantar medial surface of each hindpaw. The hindpaw withdrawal latency was measured with a Model 390G Plantar Test Analgesia Meter (IITC Life Science Inc.). To prevent tissue damage, the latency cutoff was set at 30 s. The paw withdrawal latency was defined as the time from the onset of radiant heat application to the withdrawal of the hindpaw. Both hindpaws were tested independently three times with a 5-min interval between trials. The result for each test was calculated as the mean of the three repeated measurements.
as §2, with “To determine the parameters of the dose-response curves, the values of response (Y) were fitted by non-linear least-squares curves to the relation Y = a + bx, where x = [D]^n/(ED50^n + [D]^n), [C]^n/(EC50^n + [C]^n), [D]^n/(TD50^n + [D]^n) or [D]^n/(LD50^n + [D]^n), to give each value of ED50, EC50, TD50, or LD50 and b (Emax) yielding a minimum residual sum of squares of deviations from the theoretical curve ([Wang and Pang, 1993]).” left out

For data set [5], the system named is mechanical allodynia in spinal L5/L6 nerve–ligated neuropathic rats. Description: Mechanical allodynia (von Frey paw withdrawal threshold) after intrathecal injection in spinal nerve-ligated neuropathic rats. Type of data set: in vivo, rat. As to the method: as §1, §3
To evaluate mechanical allodynia, the animals were acclimatized for at least 30 min to the test environment, namely, a plexiglass box on a metal grid (0.5 cm × 0.5 cm). The hindpaw withdrawal threshold was measured with a 2450 CE Electronic von Frey hair (IITC Life Science Inc, Woodland Hill, CA, USA). An electronic handheld transducer with a No. 15 monofilament was applied perpendicularly to the medial surface of the hindpaws with increasing force (ranging from 0.1 to 90 g) until the rat suddenly withdrew or licked the hindpaw. The lowest force that produced a withdrawal response was considered to be the threshold, which was the mean of three repeated measurements made in a 5-min interval.
as §2

[6] abbreviates: intrathecal bolus, observed 24 h.

For `CCN1C[C@]2(COC)[C@H](O)C[C@H](OC)[C@@]34[C@@H]5C[C@@]6(O)[C@H](OC(=O)c7ccccc7)[C@@H]5[C@@](OC(C)=O)([C@@H]([C@H](OC)[C@H]23)[C@@H]14)[C@@H](O)[C@@H]6OC` [Aconitine, aconitine], in data set [1] (intrathecal), the “Duration of toxic motor-blockade behavior” value lay within 5 to 10 min and the “Latency of toxic motor-blockade behavior” value lay within 2 to 3 min. Moreover, in data set [1] (intrathecal 0.25 μg), the Death latency worked out at 13.6 min and the Paralysis latency is given as 2.3 ± 0.7 min. In data set [1] (intrathecal 0.32 μg), the Death latency is on record as 12.4 ± 2.3 min and the Paralysis latency turned out to be 2.5 ± 0.8 min. In data set [1] (intrathecal 0.4 μg), this molecule displayed a Death latency of 10.0 ± 3.3 min and a Paralysis latency of 2.6 ± 1.2 min. Moreover, in data set [1] (setting [6]), the “LD50 (mortality)” value was 0.6 nmol and the “TD50 (for flaccid paralysis)” value stood at 0.4 nmol. The “Normalized TD50” value in data set [1] (intrathecal, average of TD50 (paralysis) and LD50) came to 0.5 nmol. Besides, the “Normalized ED50 for anti-hypersensitivity” value in data set [2] was 35 pmol. Also, the LD50 in data set [3] was 0.12 mg/kg. The “Emax, blockade of thermal hyperalgesia” value in data set [4] (1 h after injection) turned out to be 100 % MPE. Besides, in data set [4] (% MPE at 1 h after injection), the “ED50, blockade of thermal hyperalgesia” value is 32 pmol. Also, the “Anti-allodynic effect in ipsilateral paws” value in data set [5] (intrathecal 100 ng) is “marked and reversible anti-allodynic effect; also recorded: marked and reversible anti-allodynia”. For the same molecule, in data set [5] (intrathecal, ipsilateral paws, after injection), the “Time of peak effect on mechanical allodynia and heat hyperalgesia” value stood at 1 h. In addition, the “Emax, blockade of mechanical allodynia” value in data set [5] (intrathecal, 1 h after injection) worked out at 61.9 % MPE. Further, the “ED50, blockade of mechanical allodynia” value in data set [5] (intrathecal, % MPE at 1 h after injection) turned out to be 39 pmol. Besides, the “Effect on withdrawal responses in the contralateral paws” value in data set [5] (intrathecal, mechanical and thermal stimuli) was “did not significantly alter the withdrawal responses in the contralateral paws”.
